The experiment has as its system L1210 leukemia ip in BDF1 mice, survival T/C. The experiment in a line: NCI In Vivo Anticancer Drug Screen. Data for tumor model L1210 Leukemia (intraperitoneal) in B6D2F1 (BDF1) mice. As to conditions: endpoint: mean survival time, higher = longer survival. The method in brief:
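Survival endpoint. Drug-treated group vs vehicle group, expressed as T divided by C. Tumor passaged by transplantation.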

[1] abbreviates: dose: 100.0 mg/kg/injection, schedule: Q01DX009 (ip), vehicle: saline with Tween-80.
[2] abbreviates: dose: 200.0 mg/kg/injection, schedule: Q01DX009 (ip), vehicle: saline with Tween-80.
Where [3] appears, read: dose: 400.0 mg/kg/injection, schedule: Q01DX009 (ip), vehicle: saline with Tween-80.
The mark [4] stands for this setting: dose: 75.0 mg/kg/injection, schedule: Q01DX001 (ip), vehicle: saline.
The mark [5] stands for this setting: dose: 100.0 mg/kg/injection, schedule: Q01DX009 (ip), vehicle: Klucel (hydroxypropylcellulose) (HPC).
Setting [6] is: dose: 100.0 mg/kg/injection, schedule: Q04DX003 (ip), vehicle: saline with Tween-80.
Where [7] appears, read: dose: 200.0 mg/kg/injection, schedule: Q04DX003 (ip), vehicle: saline with Tween-80.
Setting [8] is: dose: 400.0 mg/kg/injection, schedule: Q04DX003 (ip), vehicle: saline with Tween-80.
Where [9] appears, read: dose: 150.0 mg/kg/injection, schedule: Q01DX001 (ip), vehicle: saline.
[10] abbreviates: dose: 50.0 mg/kg/injection, schedule: Q01DX009 (ip), vehicle: saline.
The mark [11] stands for this setting: dose: 100.0 mg/kg/injection, schedule: Q01DX001 (ip), vehicle: carboxymethylcellulose (CMC).
[12] abbreviates: dose: 200.0 mg/kg/injection, schedule: Q01DX001 (ip), vehicle: carboxymethylcellulose (CMC).
Where [13] appears, read: dose: 400.0 mg/kg/injection, schedule: Q01DX001 (ip), vehicle: carboxymethylcellulose (CMC).
Where [14] appears, read: dose: 100.0 mg/kg/injection, schedule: Q04DX003 (ip), vehicle: Klucel (hydroxypropylcellulose) (HPC).
[15] abbreviates: dose: 200.0 mg/kg/injection, schedule: Q04DX003 (ip), vehicle: Klucel (hydroxypropylcellulose) (HPC).
The mark [16] stands for this setting: dose: 400.0 mg/kg/injection, schedule: Q04DX003 (ip), vehicle: Klucel (hydroxypropylcellulose) (HPC).
The mark [17] stands for this setting: dose: 100.0 mg/kg/injection, schedule: Q01DX001 (ip), vehicle: saline.
Setting [18] is: dose: 200.0 mg/kg/injection, schedule: Q01DX001 (ip), vehicle: saline.
Where [19] appears, read: dose: 400.0 mg/kg/injection, schedule: Q01DX001 (ip), vehicle: saline.

Several values for one entry are separate records, joined by “and”; a condition that tells them apart may be missing. Equal values may be shown once. Toxic doses and inconclusive results are not listed.

For the molecule `Cc1cc(Cl)c(Cl)cc1NC(=O)c1ccc(Cl)c(Cl)c1`, the T/C by setting is: under setting [1], 94 % of control and 101 % of control; under setting [2], 101 % of control; under setting [3], 102 % of control and 104 % of control.
Consider `O=Nc1ccc(-[n+]2ccccc2)c([N+](=O)[O-])c1`, for which, under setting [4], the T/C is 98 % of control.
In the case of `CC(Cl)CN(CC(C)Cl)C(=O)Oc1ccc([N+](=O)[O-])cc1` (stereo unspecified), the T/C runs as follows: under setting [5], 98 % of control; (dose: 200.0 mg/kg/injection, schedule: Q01DX009 (ip), vehicle: Klucel (hydroxypropylcellulose) (HPC)) 94 % of control; (dose: 400.0 mg/kg/injection, schedule: Q01DX009 (ip), vehicle: Klucel (hydroxypropylcellulose) (HPC)) 98 % of control.
Take `Brc1ccc([Si](c2ccccc2)(c2ccccc2)c2ccccc2)cc1`: the T/C runs as follows: under setting [6], 97 % of control; under setting [7], 92 % of control; under setting [8], 89 % of control.
The corresponding values for `C=C(Br)CNS(=O)(=O)c1ccc(OC)cc1` are 92 % of control, 101 % of control and 94 % of control.
Turning to `C[N+]1=NN(c2nc[nH]c2C(N)=O)CC1`, the T/C is 96 % of control (dose: 100.0 mg/kg/injection, schedule: Q04DX002 (ip), vehicle: saline); 100 % of control (dose: 200.0 mg/kg/injection, schedule: Q04DX002 (ip), vehicle: saline); 115 % of control (dose: 400.0 mg/kg/injection, schedule: Q04DX002 (ip), vehicle: saline).
On to `CCc1ccc(NC(=O)c2ccc(Cl)cc2Cl)cc1`, for which the T/C was 97 % of control (dose: 100.0 mg/kg/injection, schedule: Q04DX002 (ip), vehicle: Klucel (hydroxypropylcellulose) (HPC)); 87 % of control (dose: 200.0 mg/kg/injection, schedule: Q04DX002 (ip), vehicle: Klucel (hydroxypropylcellulose) (HPC)); 91 % of control (dose: 400.0 mg/kg/injection, schedule: Q04DX002 (ip), vehicle: Klucel (hydroxypropylcellulose) (HPC)).
Turning to `CC[n+]1csc2ccccc21`, the T/C by setting is: under setting [4], 102 % of control; under setting [9], 105 % of control; (dose: 300.0 mg/kg/injection, schedule: Q01DX001 (ip), vehicle: saline) 97 % of control.
As for `[N-]=[N+]=Nc1ccc2[nH]c3ccccc3c(=O)c2c1`, the T/C is, setting by setting: under setting [10], 90 % of control; (dose: 100.0 mg/kg/injection, schedule: Q01DX009 (ip), vehicle: saline) 93 % of control; (dose: 100.0 mg/kg/injection, schedule: Q04DX003 (ip), vehicle: acetone) 92 % of control; (dose: 200.0 mg/kg/injection, schedule: Q01DX009 (ip), vehicle: saline) 95 % of control; (dose: 200.0 mg/kg/injection, schedule: Q04DX003 (ip), vehicle: acetone) 97 % of control; (dose: 400.0 mg/kg/injection, schedule: Q04DX003 (ip), vehicle: acetone) 97 % of control.
Turning to `COc1ccc(CN(C)CCN(C)CCN(C)Cc2ccc(OC)cc2)cc1`, the T/C is 105 % of control (dose: 25.0 mg/kg/injection, schedule: Q01DX009 (ip), vehicle: water); 99 % of control (dose: 50.0 mg/kg/injection, schedule: Q01DX009 (ip), vehicle: water); 101 % of control (dose: 100.0 mg/kg/injection, schedule: Q01DX009 (ip), vehicle: water).
In the case of `CC1(C)OC2C(CO)OC(n3nnc4c(SCc5ccccc5)nc(N)nc43)C2O1` (stereo unspecified), the T/C is 98 % of control (dose: 100.0 mg/kg/injection, schedule: Q01DX001 (ip), vehicle: Klucel (hydroxypropylcellulose) (HPC)); 92 % of control (dose: 200.0 mg/kg/injection, schedule: Q01DX001 (ip), vehicle: Klucel (hydroxypropylcellulose) (HPC)); 101 % of control (dose: 400.0 mg/kg/injection, schedule: Q01DX001 (ip), vehicle: Klucel (hydroxypropylcellulose) (HPC)).
On to `O=C1c2ccccc2C(=O)C2C3C=CC(CC3)C12` (stereo unspecified), for which the T/C (dose: 50.0 mg/kg/injection, schedule: Q01DX001 (ip), vehicle: carboxymethylcellulose (CMC)) was 100 % of control; the T/C under setting [11] is 97 % of control; the T/C under setting [12] is 97 % of control; the T/C under setting [13] is 97 % of control.
On to `CCCCCCCCCCCCCCCC(=O)Oc1ccc(C(=S)N2CCOCC2)cc1`, for which the T/C was 103 % of control under setting [14], 99 % of control under setting [15] and 99 % of control under setting [16].
On to `NC(=O)CNC(=O)C(CSCc1ccccc1)NC(=O)OCc1ccccc1` (stereo unspecified), for which the T/C is, setting by setting: (dose: 25.0 mg/kg/injection, schedule: Q01DX009 (ip), vehicle: Klucel (hydroxypropylcellulose) (HPC)) 89 % of control; (dose: 50.0 mg/kg/injection, schedule: Q01DX009 (ip), vehicle: Klucel (hydroxypropylcellulose) (HPC)) 93 % of control; under setting [5], 94 % of control; under setting [14], 90 % of control.
Consider `N#CC1CC(c2ccccc2)Nc2ccccc2N1` (stereo unspecified), for which the T/C under setting [14] is 94 % of control, the T/C under setting [15] was 98 % of control and the T/C under setting [16] was 96 % of control.
Take `CC(=O)OCCSCCc1ccccc1`: the T/C runs as follows: (dose: 62.5 mg/kg/injection, schedule: Q01DX009 (ip), vehicle: saline with Tween-80) 97 % of control; (dose: 125.0 mg/kg/injection, schedule: Q01DX009 (ip), vehicle: saline with Tween-80) 113 % of control; (dose: 250.0 mg/kg/injection, schedule: Q01DX009 (ip), vehicle: saline with Tween-80) 94 % of control.
As for `CC(Cl)CN1Cc2ccccc2CCc2ccccc2C1` (stereo unspecified), the T/C is 101 % of control (dose: 25.0 mg/kg/injection, schedule: Q04DX002 (ip), vehicle: Klucel (hydroxypropylcellulose) (HPC)) and 92 % of control (dose: 50.0 mg/kg/injection, schedule: Q04DX002 (ip), vehicle: Klucel (hydroxypropylcellulose) (HPC)).
`C=CN1CCCC1=O` (tested in a mixture with another compound): the T/C reads like this: under setting [17], 101 % of control [middle of 4 runs]; under setting [1], 92 % of control and 97 % of control; under setting [18], 101 % of control [middle of 4 runs]; under setting [2], 93 % of control and 100 % of control; under setting [19], 101 % of control and 89 % of control and 98 % of control; under setting [3], 93 % of control and 96 % of control.
Consider `Cc1cc2c(cc1C)-c1ccccc1C2=O`, for which the T/C under setting [11] is 102 % of control, the T/C under setting [12] is 102 % of control and the T/C under setting [13] is 96 % of control.
On to `Cc1[nH]nc(C(N)=O)c1N=NN(C)C`, for which the T/C is, setting by setting: (dose: 12.5 mg/kg/injection, schedule: Q01DX009 (ip), vehicle: saline) 108 % of control; (dose: 25.0 mg/kg/injection, schedule: Q01DX001 (ip), vehicle: saline) 121 % of control; (dose: 25.0 mg/kg/injection, schedule: Q01DX009 (ip), vehicle: saline) 124 % of control; under setting [10], 183 % of control; under setting [4], 112 % of control and 124 % of control; (dose: 75.0 mg/kg/injection, schedule: Q01DX009 (ip), vehicle: saline) 204 % of control. Further, the T/C is 104 % of control and 216 % of control under setting [9]; 186 % of control (dose: 150.0 mg/kg/injection, schedule: Q01DX009 (ip), vehicle: saline).
On to `O=[N+]([O-])c1ccc2nc[nH]c2c1`, for which the T/C runs as follows: (dose: 25.0 mg/kg/injection, schedule: Q01DX009 (ip), vehicle: saline with Tween-80) 89 % of control; (dose: 50.0 mg/kg/injection, schedule: Q01DX009 (ip), vehicle: saline with Tween-80) 96 % of control.
Take `CC(=O)c1cccc(N2C(=O)CC(=P(c3ccccc3)(c3ccccc3)c3ccccc3)C2=O)c1`: the T/C under setting [4] is 93 % of control.
For the molecule `COc1ccc(C=NC2C(OC(C)=O)OC(COC(C)=O)C(OC(C)=O)C2OC(C)=O)cc1` (stereo unspecified), the T/C reads like this: under setting [17], 98 % of control; under setting [18], 98 % of control; under setting [19], 98 % of control.

The values are drawn from PubChem BioAssay AID248 (DTP/NCI, 2004).
